According to patent publication US9486506B2 (Novo Nordisk A/S, priority 2011, dated 2016):
Numbered stars: 1 amine (or outer) side, 2 acyl side, 3 side chain; on linkers, the order of the positions; unused ones are H or OH. Side chains are listed from the residue outwards. Peptide text beside a SMILES is read from it. * marks the point of attachment. C20 diacid = O=C(O)CCCCCCCCCCCCCCCCCCC(=O)*; C18 diacid = O=C(O)CCCCCCCCCCCCCCCCC(=O)*; γGlu = O=C(O)[C@H](CCC(=O)[*:2])N[*:1]; AEEA = NCCOCCOCC(=O)O

Biological target: T1, glucagon receptor (Homo sapiens, UniProt P47871)
T1 construct: expressed in transfected cells
T1 sequence (P47871 26-477): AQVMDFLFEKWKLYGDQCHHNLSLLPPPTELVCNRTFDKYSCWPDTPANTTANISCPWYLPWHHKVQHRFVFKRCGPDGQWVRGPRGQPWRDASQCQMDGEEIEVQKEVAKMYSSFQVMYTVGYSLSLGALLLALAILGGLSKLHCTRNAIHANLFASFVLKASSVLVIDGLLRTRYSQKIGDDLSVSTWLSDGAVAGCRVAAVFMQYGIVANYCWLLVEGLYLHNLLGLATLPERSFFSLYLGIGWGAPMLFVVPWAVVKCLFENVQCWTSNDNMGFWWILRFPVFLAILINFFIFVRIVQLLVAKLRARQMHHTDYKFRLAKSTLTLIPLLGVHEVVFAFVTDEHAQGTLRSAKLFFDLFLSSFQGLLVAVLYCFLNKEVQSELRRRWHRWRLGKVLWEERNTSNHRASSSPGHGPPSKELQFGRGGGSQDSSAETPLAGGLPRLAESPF
Assay: Assay (I) Glucagon activity (cAMP biosensor, FLIPR)
Assay type: cell-based
Procedure: The cells (14000 per well) were incubated (37° C., 5% CO2) overnight in 384-well plates. Next day the cells were loaded with a calcium responsive dye that only distributed into the cytoplasm. Probenecid, an inhibitor of the organic anion transporter, was added to prevent the dye from leaving the cell. A PDE inhibitor was added to prevent formatted cAMP from being degraded. The plates were placed into a […] and the glucagon analogues were added. End point data were collected after 6 minutes. An increase in intracellular cAMP was proportional to an increased in calcium concentrations in the cytoplasm. When calcium was bound the dry a fluorescence signal was generated. EC50-values were calculated in Prism5.

Row | Structure (SMILES) | EC50 [pM]
1 | CC[C@H](C)[C@H](NC(=O)[C@H](CC(C)C)NC(=O)[C@H](CC(C)C)NC(=O)[C@H](Cc1c[nH]c2ccccc12)NC(=O)[C@H](CCCCNC(=O)CC[C@H](NC(=O)CC[C@H](NC(=O)COCCOCCNC(=O)COCCOCCNC(=O)CC[C@H](NC(=O)CCCCCCCCCCCCCCCCC(=O)O)C(=O)O)C(=O)O)C(=O)O)NC(=O)[C@@H](NC(=O)[C@H](Cc1ccccc1)NC(=O)[C@H](CC(=O)O)NC(=O)[C@H](CCC(N)=O)NC(=O)[C@H](C)NC(=O)[C@H](CCCNC(=N)N)NC(=O)[C@H](CCCNC(=N)N)NC(=O)[C@H](CC(C)C)NC(=O)[C@H](CC(=O)O)NC(=O)[C@H](CC(C)C)NC(=O)[C@H](Cc1ccc(O)cc1)NC(=O)[C@H](CCCNC(=N)N)NC(=O)[C@H](CO)NC(=O)[C@H](Cc1ccc(O)cc1)NC(=O)[C@H](CC(=O)O)NC(=O)[C@H](CO)NC(=O)[C@@H](NC(=O)[C@H](Cc1ccccc1)NC(=O)[C@@H](NC(=O)CNC(=O)[C@H](CCC(N)=O)NC(=O)[C@H](CO)NC(=O)[C@@H](N)Cc1c[nH]cn1)[C@@H](C)O)[C@@H](C)O)C(C)C)C(=O)N[C@H](C(=O)O)[C@@H](C)O [Example 18, N^ε24-[(4S)-4-carboxy-4-[[(4S)-4-carboxy-4-[[2-[2-[2-[[2-[2-[2-[[(4S)-4-carboxy-4-(17-carboxyheptadecanoylamino)butanoyl]amino]ethoxy]ethoxy]acetyl]amino]ethoxy]ethoxy]acetyl]amino]butanoyl]amino]butanoyl]-[Arg^12,Leu^16,Lys^24,Leu^27,Ile^28]-Glucagon] (H-HSQGTFTSDYSRYLDLRRAQDFVK([γGlu-γGlu-AEEA-AEEA-γGlu-C18 diacid])WLLIT-OH) | 1670
2 | CC(C)C[C@H](NC(=O)[C@H](CC(=O)O)NC(=O)[C@H](CC(C)C)NC(=O)[C@H](Cc1ccc(O)cc1)NC(=O)[C@H](CCCNC(=N)N)NC(=O)[C@H](CO)NC(=O)[C@H](Cc1ccc(O)cc1)NC(=O)[C@H](CC(=O)O)NC(=O)[C@H](CO)NC(=O)[C@@H](NC(=O)[C@H](Cc1ccccc1)NC(=O)[C@@H](NC(=O)CNC(=O)[C@H](CCC(N)=O)NC(=O)[C@H](CO)NC(=O)[C@@H](N)Cc1c[nH]cn1)[C@@H](C)O)[C@@H](C)O)C(=O)N[C@@H](CCCNC(=N)N)C(=O)N[C@@H](CCCNC(=N)N)C(=O)N[C@@H](C)C(=O)N[C@@H](CCC(N)=O)C(=O)N[C@@H](CC(=O)O)C(=O)N[C@@H](Cc1ccccc1)C(=O)N[C@H](C(=O)N[C@@H](CCCCNC(=O)CC[C@H](NC(=O)CC[C@H](NC(=O)COCCOCCNC(=O)COCCOCCNC(=O)CC[C@H](NC(=O)CCCCCCCCCCCCCCCCCCC(=O)O)C(=O)O)C(=O)O)C(=O)O)C(=O)N[C@@H](Cc1c[nH]c2ccccc12)C(=O)N[C@@H](CC(C)C)C(=O)N[C@@H](CC(C)C)C(=O)N[C@@H](CO)C(=O)N[C@H](C(=O)O)[C@@H](C)O)C(C)C [Example 26, N^ε24-[(4S)-4-carboxy-4-[[(4S)-4-carboxy-4-[[2-[2-[2-[[2-[2-[2-[[(4S)-4-carboxy-4-(19-carboxynonadecanoylamino)butanoyl]amino]ethoxy]ethoxy]acetyl]amino]ethoxy]ethoxy]acetyl]amino]butanoyl]amino]butanoyl]-[Arg^12,Leu^16,Lys^24,Leu^27,Ser^28]-Glucagon] (H-HSQGTFTSDYSRYLDLRRAQDFVK([γGlu-γGlu-AEEA-AEEA-γGlu-C20 diacid])WLLST-OH) | 1070
3 | CC(C)C[C@H](NC(=O)[C@H](CC(=O)O)NC(=O)[C@H](CC(C)C)NC(=O)[C@H](Cc1ccc(O)cc1)NC(=O)[C@H](CCCNC(=N)N)NC(=O)[C@H](CO)NC(=O)[C@H](Cc1ccc(O)cc1)NC(=O)[C@H](CC(=O)O)NC(=O)[C@H](CO)NC(=O)[C@@H](NC(=O)[C@H](Cc1ccccc1)NC(=O)[C@@H](NC(=O)CNC(=O)[C@H](CCC(N)=O)NC(=O)[C@H](CO)NC(=O)[C@@H](N)Cc1c[nH]cn1)[C@@H](C)O)[C@@H](C)O)C(=O)N[C@@H](CCCNC(=N)N)C(=O)N[C@@H](CCCNC(=N)N)C(=O)N[C@@H](C)C(=O)N[C@@H](CCC(N)=O)C(=O)N[C@@H](CC(=O)O)C(=O)N[C@@H](Cc1ccccc1)C(=O)N[C@H](C(=O)N[C@@H](CCCCNC(=O)CC[C@H](NC(=O)COCCOCCNC(=O)COCCOCCNC(=O)CC[C@H](NC(=O)CC[C@H](NC(=O)CCCCCCCCCCCCCCCCC(=O)O)C(=O)O)C(=O)O)C(=O)O)C(=O)N[C@@H](Cc1c[nH]c2ccccc12)C(=O)N[C@@H](CC(C)C)C(=O)N[C@@H](CC(C)C)C(=O)N[C@@H](CO)C(=O)N[C@H](C(=O)O)[C@@H](C)O)C(C)C [Example 27, N^ε24-[(4S)-4-carboxy-4-[[2-[2-[2-[[2-[2-[2-[[(4S)-4-carboxy-4-[[(4S)-4-carboxy-4-(17-carboxyheptadecanoylamino)butanoyl]amino]butanoyl]amino]ethoxy]ethoxy]acetyl]amino]ethoxy]ethoxy]acetyl]amino]butanoyl]-[Arg^12,Leu^16,Lys^24,Leu^27,Ser^28]-Glucagon] (H-HSQGTFTSDYSRYLDLRRAQDFVK([γGlu-AEEA-AEEA-γGlu-γGlu-C18 diacid])WLLST-OH) | 910
4 | CC(C)C[C@H](NC(=O)[C@H](CC(=O)O)NC(=O)[C@H](CC(C)C)NC(=O)[C@H](Cc1ccc(O)cc1)NC(=O)[C@H](CCCNC(=N)N)NC(=O)[C@H](CO)NC(=O)[C@H](Cc1ccc(O)cc1)NC(=O)[C@H](CC(=O)O)NC(=O)[C@H](CO)NC(=O)[C@@H](NC(=O)[C@H](Cc1ccccc1)NC(=O)[C@@H](NC(=O)CNC(=O)[C@H](CCC(N)=O)NC(=O)[C@H](CO)NC(=O)[C@@H](N)Cc1c[nH]cn1)[C@@H](C)O)[C@@H](C)O)C(=O)N[C@@H](CCCNC(=N)N)C(=O)N[C@@H](CCCNC(=N)N)C(=O)N[C@@H](C)C(=O)N[C@@H](CCC(N)=O)C(=O)N[C@@H](CC(=O)O)C(=O)N[C@@H](Cc1ccccc1)C(=O)N[C@H](C(=O)N[C@@H](CCCCNC(=O)COCCOCCNC(=O)COCCOCCNC(=O)CC[C@H](NC(=O)CC[C@H](NC(=O)CC[C@H](NC(=O)CCCCCCCCCCCCCCCCC(=O)O)C(=O)O)C(=O)O)C(=O)O)C(=O)N[C@@H](Cc1c[nH]c2ccccc12)C(=O)N[C@@H](CC(C)C)C(=O)N[C@@H](CC(C)C)C(=O)N[C@@H](CO)C(=O)N[C@H](C(=O)O)[C@@H](C)O)C(C)C [Example 28, N^ε24-[2-[2-[2-[[2-[2-[2-[[(4S)-4-carboxy-4-[[(4S)-4-carboxy-4-[[(4S)-4-carboxy-4-(17-carboxyheptadecanoylamino)butanoyl]amino]butanoyl]amino]butanoyl]amino]ethoxy]ethoxy]acetyl]amino]ethoxy]ethoxy]acetyl]-[Arg^12,Leu^16,Lys^24,Leu^27,Ser^28]-Glucagon] (H-HSQGTFTSDYSRYLDLRRAQDFVK([AEEA-AEEA-γGlu-γGlu-γGlu-C18 diacid])WLLST-OH) | 100
5 | CC(C)C[C@H](NC(=O)[C@H](Cc1c[nH]c2ccccc12)NC(=O)[C@H](CCCCNC(=O)CC[C@H](NC(=O)CC[C@H](NC(=O)COCCOCCNC(=O)COCCOCCNC(=O)CC[C@H](NC(=O)CCCCCCCCCCCCCCCCC(=O)O)C(=O)O)C(=O)O)C(=O)O)NC(=O)[C@@H](NC(=O)[C@H](Cc1ccccc1)NC(=O)[C@H](CC(=O)O)NC(=O)[C@H](CCC(N)=O)NC(=O)[C@H](C)NC(=O)[C@H](CCCNC(=N)N)NC(=O)[C@H](CCCNC(=N)N)NC(=O)[C@@H](NC(=O)[C@H](CC(=O)O)NC(=O)[C@H](CC(C)C)NC(=O)[C@H](Cc1ccc(O)cc1)NC(=O)[C@H](CCCCN)NC(=O)[C@H](CO)NC(=O)[C@H](Cc1ccc(O)cc1)NC(=O)[C@H](CC(=O)O)NC(=O)[C@H](CO)NC(=O)[C@@H](NC(=O)[C@H](Cc1ccccc1)NC(=O)[C@@H](NC(=O)CNC(=O)[C@H](CCC(N)=O)NC(=O)[C@H](CO)NC(=O)[C@@H](N)Cc1c[nH]cn1)[C@@H](C)O)[C@@H](C)O)C(C)C)C(C)C)C(=O)N[C@@H](CC(C)C)C(=O)N[C@@H](CO)C(=O)N[C@H](C(=O)O)[C@@H](C)O [Example 30, N^ε24-[(4S)-4-carboxy-4-[[(4S)-4-carboxy-4-[[2-[2-[2-[[2-[2-[2-[[(4S)-4-carboxy-4-(17-carboxyheptadecanoylamino)butanoyl]amino]ethoxy]ethoxy]acetyl]amino]ethoxy]ethoxy]acetyl]amino]butanoyl]amino]butanoyl]-[Val16,Lys24,Leu27,Ser28]-Glucagon] | 307
6 | CC(C)C[C@H](NC(=O)[C@H](Cc1c[nH]c2ccccc12)NC(=O)[C@H](CCCCNC(=O)CC[C@H](NC(=O)CC[C@H](NC(=O)COCCOCCNC(=O)COCCOCCNC(=O)CC[C@H](NC(=O)CCCCCCCCCCCCCCCCC(=O)O)C(=O)O)C(=O)O)C(=O)O)NC(=O)[C@@H](NC(=O)[C@H](Cc1ccccc1)NC(=O)[C@H](CCC(=O)O)NC(=O)[C@H](CCC(N)=O)NC(=O)[C@H](C)NC(=O)[C@H](CCCNC(=N)N)NC(=O)[C@H](CCCNC(=N)N)NC(=O)[C@@H](NC(=O)[C@H](CC(=O)O)NC(=O)[C@H](CC(C)C)NC(=O)[C@H](Cc1ccc(O)cc1)NC(=O)[C@H](CCCCN)NC(=O)[C@H](CO)NC(=O)[C@H](Cc1ccc(O)cc1)NC(=O)[C@H](CC(=O)O)NC(=O)[C@H](CO)NC(=O)[C@@H](NC(=O)[C@H](Cc1ccccc1)NC(=O)[C@@H](NC(=O)CNC(=O)[C@H](CCC(N)=O)NC(=O)[C@H](CO)NC(=O)[C@@H](N)Cc1c[nH]cn1)[C@@H](C)O)[C@@H](C)O)[C@@H](C)O)C(C)C)C(=O)N[C@@H](CC(C)C)C(=O)N[C@@H](CO)C(=O)N[C@H](C(=O)O)[C@@H](C)O [Example 31, N^ε24-[(4S)-4-carboxy-4-[[(4S)-4-carboxy-4-[[2-[2-[2-[[2-[2-[2-[[(4S)-4-carboxy-4-(17-carboxyheptadecanoylamino)butanoyl]amino]ethoxy]ethoxy]acetyl]amino]ethoxy]ethoxy]acetyl]amino]butanoyl]amino]butanoyl]-[Thr16,Glu21,Lys24,Leu27,Ser28]-Glucagon] (H-HSQGTFTSDYSKYLDTRRAQEFVK([γGlu-γGlu-AEEA-AEEA-γGlu-C18 diacid])WLLST-OH) | 72
